For one assay, the target named is Signal peptidase I (Escherichia coli K-12, UniProt P00803). Kind of assay: Inhibitory activity against Escherichia coli leader peptidase using substrate A. Conditions: read-out: I50.
In assay [1] the target is Signal peptidase I (Escherichia coli K-12) (UniProt P00803). Kind of assay: Inhibitory activity against Escherichia coli leader peptidase at a concentration of 100 uM.
A short description of assay [2]: Inhibitory activity against Escherichia coli leader peptidase using substrate B. Conditions: read-out: I50.
Assay [3] concerns Escherichia coli. As to conditions: 100 uM.
Assay [4] relates to Escherichia coli. Briefly: Compound was evaluated for Michaelis-Menten constant (Km).
Assay [5] can be described thus: Inhibitory activity against Escherichia coli leader peptidase using substrate A. As to conditions: read-out: I50.

Our source for the IC50, inhibition and Km values is ChEMBL document CHEMBL1150541, “Penem inhibitors of bacterial signal peptidase” (Bioorg Med Chem Lett, 1995).

Where a SMILES comes first, the peptide text is derived from it.

Sequence of Signal peptidase I (Escherichia coli K-12) (P00803 whole entry): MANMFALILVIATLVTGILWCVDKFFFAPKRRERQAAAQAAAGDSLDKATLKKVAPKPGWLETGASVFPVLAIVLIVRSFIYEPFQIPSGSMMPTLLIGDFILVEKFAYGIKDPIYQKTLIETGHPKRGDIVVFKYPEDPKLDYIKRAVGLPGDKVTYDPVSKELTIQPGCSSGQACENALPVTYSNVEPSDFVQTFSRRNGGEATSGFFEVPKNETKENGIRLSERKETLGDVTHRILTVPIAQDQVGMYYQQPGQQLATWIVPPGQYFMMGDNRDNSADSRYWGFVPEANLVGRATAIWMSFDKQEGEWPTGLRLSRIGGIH
Sequence of Signal peptidase I (P00803 whole entry): as above

Take `CCCCCOC(=O)C1=CSC2CC(=O)N12` (stereo not drawn): the IC50 at Signal peptidase I was 21 µM. The inhibition in assay [1] turned out to be 100%. `C=CCOC(=O)C1=CS[C@H]2[C@@H]([C@H](C)OC(C)=O)C(=O)N12` returned an inhibition in assay [1] of 0%. As for `CCCCCCCCCCCCCCCCOC(=O)C1=CSC2CC(=O)N12` (stereo not drawn), the inhibition in assay [1] is 0%. As for `C=CCOC(=O)C1=CS[C@H]2[C@@H]([C@@H](C)OC(C)=O)C(=O)N12` [listing 1 of 3 here], the IC50 on Signal peptidase I was determined as 0.85 µM; in assay [2], 0.07 µM. For `C=CCOC(=O)C1=CS[C@@H]2[C@@H]([C@@H](C)OC(C)=O)C(=O)N12`, the inhibition in assay [1] was determined as 64%. As to `O=C(OCc1ccccc1)C1=CSC2CC(=O)N12` (stereo not drawn), on Signal peptidase I, the IC50 was 10 µM. In the assay with Escherichia coli [3], this molecule returned an inhibition of 100%. Take `CC[C@H](C)[C@H](NC(=O)[C@H](CCCCN)NC(=O)[C@H](C)NC(=O)[C@H](CC(C)C)NC(=O)[C@H](C)NC(=O)[C@H](CO)NC(=O)[C@H](C)NC(=O)[C@H](CO)NC(=O)[C@@H](N)Cc1ccccc1)C(N)=O` (H-FSASALAKI-NH2): the Km in the assay with Escherichia coli [4] was determined as 1000 µM. On to `O=C(NCc1ccccc1)C1=CSC2CC(=O)N12` (stereo not drawn), for which, in assay [1], the inhibition came out at 34%. Take `O=C(O)C1=CSC2CC(=O)N12` (stereo not drawn): at Signal peptidase I, the IC50 amounted to 600 µM. For the same molecule, in assay [1], the inhibition came to 0%. In turn, `C=CCOC(=O)C1=CS[C@@H]2[C@H]([C@H](C)OC(C)=O)C(=O)N12` had an inhibition in assay [1] of 20%. `COc1ccc(COC(=O)C2=CS[C@@H]3CC(=O)N23)cc1` returned an inhibition in assay [1] of 0%.

For `O=C(Nc1ccccc1)C1=CSC2CC(=O)N12` (stereo not drawn), the IC50 at Signal peptidase I was found to be 58 µM. The molecule further had an inhibition in assay [1] of 86%. `COC(=O)c1ccc(COC(=O)C2=CSC3CC(=O)N23)cc1` (stereo not drawn): the IC50 on Signal peptidase I came out at 3 µM. Besides, the inhibition in assay [1] was 100%. `O=C(C1=CSC2CC(=O)N12)N1CCOCC1` (stereo not drawn): the IC50 on Signal peptidase I is 115 µM. This molecule also had an inhibition in assay [1] of 79%. For the molecule `CN(Cc1ccccc1)C(=O)C1=CSC2CC(=O)N12` (stereo not drawn), at Signal peptidase I, the IC50 stood at 50 µM. In assay [1], this molecule gave an inhibition of 88%.

On to `C=CCOC(=O)C1=CS[C@H]2[C@@H](CC)C(=O)N12`, for which the IC50 at Signal peptidase I came out at 20 µM. The molecule also had an inhibition in assay [1] of 84%.

Turning to `CC(C)(C)NC(=O)C1=CSC2CC(=O)N12` (stereo not drawn), the inhibition in assay [1] was found to be 0%. Regarding `O=C(OCCCCc1ccccc1)C1=CSC2CC(=O)N12` (stereo not drawn), the IC50 at Signal peptidase I stood at 13 µM. In assay [1], this molecule showed an inhibition of 83%.

As for `O=C(OCc1ccccc1)C1=CS[C@H]2CC(=O)N12`, the IC50 on Signal peptidase I came to 3 µM. In assay [1], this molecule returned an inhibition of 100%. On to `COC(=O)C1=CSC2CC(=O)N12` (stereo not drawn), for which the IC50 at Signal peptidase I was determined as 4 µM. Moreover, in assay [1], the inhibition came to 100%. With `O=C(C1=CSC2CC(=O)N12)N1CCCC1` (stereo not drawn), the IC50 in assay [5] was 10 µM. The inhibition in assay [1] was determined as 93%. Turning to `COC(=O)c1cccc(COC(=O)C2=CSC3CC(=O)N23)c1` (stereo not drawn), the IC50 at Signal peptidase I was 8 µM. In assay [1], this molecule showed an inhibition of 72%. `COc1ccc(NC(=O)C2=CSC3CC(=O)N23)cc1` (stereo not drawn): at Signal peptidase I, the IC50 amounted to 87 µM. This molecule also showed an inhibition in assay [1] of 77%. In the case of `C=CCOC(=O)C1=CS[C@H]2[C@@H]([C@@H](C)O)C(=O)N12`, the IC50 on Signal peptidase I is 0.92 µM; in assay [2] it was 0.18 µM. The inhibition in assay [1] is 100%. Turning to `O=C(OCc1ccc([N+](=O)[O-])cc1)C1=CSC2CC(=O)N12` (stereo not drawn), at Signal peptidase I, the IC50 was 50 µM. The same molecule gave an inhibition in assay [1] of 85%. In turn, `O=C(OCc1ccc(C(=O)O)cc1)C1=CSC2CC(=O)N12` (stereo not drawn) came in with an inhibition in assay [1] of 31%. On to `C=CCOC(=O)C1=CS[C@H]2[C@@H]([C@@H](C)OC(C)=O)C(=O)N12` [listing 2 of 3 here], for which, in assay [1], the inhibition is 100%.

With `CCN(CC)C(=O)C1=CSC2CC(=O)N12` (stereo not drawn), the IC50 at Signal peptidase I worked out at 58 µM. The molecule also registered an inhibition in assay [1] of 86%. Turning to `C=CCOC(=O)C1=CSC2CC(=O)N12` (stereo not drawn), the IC50 on Signal peptidase I was determined as 10 µM. This molecule gave an inhibition in assay [1] of 93%.

Regarding `C=CCOC(=O)C1=CS[C@@H]2[C@@H](CC)C(=O)N12`, the inhibition in assay [1] came to 19%. In the case of `O=C(OCc1ccccc1)C1=CS[C@@H]2CC(=O)N12`, in assay [1], the inhibition is 0%.

In turn, `C=CCOC(=O)C1=CS[C@@H]2[C@@H]([C@H](C)OC(C)=O)C(=O)N12` came in with an inhibition in assay [1] of 0%. In the case of `COCOC(=O)C1=CSC2CC(=O)N12` (stereo not drawn), at Signal peptidase I, the IC50 stood at 6 µM. The same molecule came in with an inhibition in assay [1] of 100%. On to `CC[C@H](C)[C@H](NC(=O)[C@H](CCCCN)NC(=O)[C@H](C)NC(=O)[C@H](CC(C)C)NC(=O)[C@H](C)NC(=O)[C@H](CO)NC(=O)[C@H](C)NC(=O)[C@H](CO)NC(=O)[C@@H](N)Cc1c[nH]c2ccccc12)C(N)=O` (H-WSASALAKI-NH2), for which the Km with Escherichia coli [4] is 300 µM. In the case of `COc1ccc(COC(=O)C2=CSC3CC(=O)N23)cc1` (stereo not drawn), the IC50 at Signal peptidase I amounted to 7 µM. This molecule had an inhibition in assay [1] of 100%. Regarding `C=CCOC(=O)C1=CS[C@H]2[C@@H]([C@@H](C)OC(C)=O)C(=O)N12` [listing 3 of 3 here], the IC50 at Signal peptidase I turned out to be 1.8 µM.

What is called inhibition is the drop in the measured response relative to a control, in per cent. Read a high inhibition as strong suppression. As a reminder, the Km is the concentration of substrate that gives half-maximal velocity.
